Consider three compounds from US7692011B2, “8-hydroxy and 8-mercapto quinazolinones” (Prana Biotechnology Limited, priority 2002, dated 2010).

The nature of data set [1]: Assay 12 Turbidimetric solubility measurements. The data set is classed as physicochemical. The following applies: kinetic from dmso stock, nephelometry. The procedure: Turbidimetric Solubility Measurements
The solubility estimate was measured at both pH 2.0 and pH 6.5. This is within the pH range that can be anticipated along the proximal gastrointestinal tract in humans.
The compounds were dissolved in DMSO to appropriate concentrations and then spiked into either 0.01M HCl (approx. pH=2.0) or pH 6.5 isotonic phosphate buffer, the final DMSO concentration being 1%. Samples were then analysed via Nephelometry to determine a solubility range. [as per D. Bevan and R. S. Lloyd, Anal. Chem. 2000, 72, 1781-1787].

In data set [2] the test system is Neuronal cortical cells treated with Aβ1-42. Description: Assay 3(c) Aβ neurotoxicity and Aβ neuroprotection (MTS). The data set is classed as cell-based, mouse. The following applies: 20 uM Aβ1-42, 4 days. The method, then: Primary Cortical Neuronal Cultures
Cortical cultures were prepared as previously described (White et al., 1998). Embryonic day 14 BL6Jx129sv mouse cortices were removed, dissected free of meninges and dissociated in 0.025% (wt/vol) trypsin. Dissociated cells were plated in 48 well culture plates at a density of 2×10^6 cells/mL in MEM with 25% (vol/vol) FCS and 5% (vol/vol) HS and incubated at 37° C., 2 hrs. Media was then replaced with Neurobasal media (Invitrogen Life Technologies) and B27 supplements (Invitrogen Life Technologies). Cultures were maintained at 37° C. in 5% CO2. Prior to experimentation, the culture medium was replaced with Neurobasal media and B27 minus antioxidants (Invitrogen Life Technologies).
(c) Assay for Aβ Neurotoxicity and Aβ Neuroprotection
Neuronal cortical cells were cultured for five days as per Assay 2. On day six the neurobasal (NB) media (Invitrogen Life Technologies) and B27 supplement (Invitrogen Life Technologies) were replaced with NB media and B27 supplement (no antioxidants). On day six, test compounds were individually added to the neuronal cell cultures:
The test compounds were dissolved in 100% DMSO to a concentration of 2.5 mM (10 mM if excess compound was weighed out per vial—then diluted to 2.5 mM). 2.5 mM stock solution was serially diluted 1 in 10 to give working solutions of 250 uM, 25 uM, 2.5 uM.
Aβ was initially dissolved in 20 mM NaOH to a concentration of 1 mM and sonicated for 5 minutes. The peptide was then diluted in H2O and 10×PBS to a final concentration of 200 uM Aβ in 1×PBS. The peptide was again sonicated for 5 minutes and then spun at 14000 rpm for 5 min and transferred to a fresh tube.
The test compounds were dissolved in 100% DMSO to a concentration of 2.5 mM (10 mM if excess compound was weighed out per vial—then diluted to 2.5 mM). 2.5 mM stock solution was serially diluted 1 in 10 [in NB media and B27 (no antioxidants)] to give working solutions of 250 uM, 25 uM, 2.5 uM. Test compounds were not added directly to cells, instead they were added to a 48 well ‘Drug Plate’ as comprised below:
Preparation of “Drug Plate”:
• Well 1: 515 ul NB+B27(no antioxidant)*+24 ul 25 uM test compound+60 ul Aβ diluent** • Well 2: 515 ul NB+B27(no antioxidant)+24 ul 250 uM test compound+60 ul Aβ diluent • Well 3: 515 ul NB+B27(no antioxidant)+24 ul test compound diluent***+60 ul Aβ1-42 • Well 4: 515 ul NB+B27(no antioxidant)+24 ul 2.5 uM test compound+60 ul Aβ1-42 • Well 5: 515 ul NB+B27(no antioxidant)+24 ul 25 uM test compound+60 ul Aβ1-42 • Well 6: 515 ul NB+B27(no antioxidant)+24 ul 250 uM test compound+60 ul […] • Well 7: 515 ul NB+B27(no antioxidant)+24 ul test compound diluent+60 ul Aβ1-42 diluent • Well 8: 600 ul NB+B27(no antioxidant) • N.B. 60 ul Aβ1-42 equals 20 ul Aβ1-42 per well equals 20 uM Aβ1-42
The Drug Plate was incubated at 37° C. for 15 mins. 200 ul of each well was added in triplicate to the corresponding cell plate. The cell plate was incubated at 37 C, for 4 days. • * NB media+B27 (no antioxidants), • ** Aβ diluent 2 mM NaOH, 1×PBS • *** PBT diluent 10% DMSO in NB+B27(no antioxidant) Completion of the Assay:
On the 4th day after treating the cells the assay is completed by adding MTS to the cells.

Data set [3] addresses T1, Aβ 1-42 (Homo sapiens, UniProt P05067).
T1 construct: The reaction solutions contained Aβ 1-42
Description: Assay 1 Fluorometric H2O2 assay: inhibition of hydrogen peroxide generation by Aβ in the presence of copper. The data set is classed as biochemical. As to conditions: Aβ 1-42 with Cu-Gly, DCF fluorescence. The method, then:
Assay 1. Fluorometric H2O2 Assay
A fluorometric assay was used to test the ability of a test compound to inhibit hydrogen peroxide generation by Aβ in the presence of copper based on dichlorofluoroscein diacetate (DCF; Molecular Probes, Eugene Oreg.). The DCF solution (5 mM) in 100% dimethyl sulphoxide (previously purged with argon for 1 hr at 20° C.) was deacetylated in the presence of 0.025M NaOH for 30 min and neutralised at pH 7.4 to a final concentration of 1 mM. Horseradish peroxidase ([…]) stock solution was prepared to 1 μM at pH 7.4. The reactions were carried out in PBS, pH 7.4 in a 96 well plate (total volume=250 μl/well). The reaction solutions contained Aβ 1-42 at concentrations in the range of 50 nM to 1 μM, copper-glycine chelate (Cu-Gly), was prepared by adding CuCl2 to glycine in the ratio of 1:6 and added to the Aβ in the proportion 2Cu-Gly: 1Aβ), reducing agents including dopamine (5 μM) or ascorbic acid, deacetylated DCF 100 μM, and HRP, 0.1 μM. 1-10 μM EDTA or another chelator may also be present as a control for free copper, but was not required for the assay to function. The reaction mixture was incubated at 37 C for 60 min. Catalase (4000 units/ml) and H2O2 (1-2.5 μM) standards in PBS pH 7.4 may be included as positive controls. Fluorescence was recorded using a plate reader with excitation and emission filters at […] respectively. H2O2 concentration may be established by comparing fluorescence with the H2O2 standards. Inhibition of Aβ H2O2 production was assayed by including a given concentration of test compound(s) in the test wells.

The mark [4] stands for this setting: aqueous buffer, pH 6.5 isotonic phosphate buffer, 1% DMSO, read-out: Assay 12 Solubility at pH 6.5.
The mark [5] stands for this setting: simulated gastric fluid, 0.01 M HCl, pH 2.0, 1% DMSO, read-out: Assay 12 Solubility in 0.01 M HCl, pH 2.0.

Structures are written as SMILES. pIC50: −log10 of the molar value. Converted amounts (≈) assume the structure as drawn. Where two headings read alike, the source gives them in different places.

T1 sequence (P05067 672-713 limits assumed): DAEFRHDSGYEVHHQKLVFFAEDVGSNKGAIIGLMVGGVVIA

Take `Oc1c(N2CCOCC2)ncc2cccnc12` [PBT-1053, 7-Morpholin-4-yl-[1,6]naphthyridin-8-ol]: the solubility (in general, the dissolved amount per volume that the medium holds) in data set [1] (setting [4]) is > 200 µg/mL; in data set [1] (setting [5]), 50 to 100 µg/mL (≈ 216 to 432 µM). The “Assay 3(c) Neuroprotection (% inhibition of Abeta toxicity)” value in data set [2] is 11%. Further, the negative-log IC50 (pIC50) – broadly, −log10 of the IC50, conventionally taken in molar units – in data set [3] was 6.20.
For `O=c1c2c(Cl)cc(Cl)c(O)c2ncn1C1CC1` [PBT-1061, 5,7-Dichloro-3-cyclopropyl-8-hydroxy-3H-quinazolin-4-one], the solubility in data set [1] (setting [4]) was 12.5 to 25 µg/mL (≈ 46.1 to 92.2 µM); in data set [1] (setting [5]), 3.1 to 6.2 µg/mL (≈ 11.4 to 22.9 µM). Further, in data set [2], the “Assay 3(c) Neuroprotection (% inhibition of Abeta toxicity)” value worked out at 16%. Besides, the negative logarithm of the IC50 (pIC50) in data set [3] was 6.35.
For the compound `O=c1c(-c2ccc(Cl)cc2)cnc2c(O)c(I)ccn12` [PBT-1063, 3-(4-Chlorophenyl)-9-hydroxy-8-iodopyrido[1,2-a]pyrimidin-4-one], the results for the solubility in data set [1] (setting [4]) and in data set [1] (setting [5]) were < 5 µg/mL and < 10 µg/mL, respectively. Moreover, in data set [2], the “Assay 3(c) Neuroprotection (% inhibition of Abeta toxicity)” value stood at 3%. The negative-log IC50 (pIC50) in data set [3] was 6.21.
